# Assay results published in PMC6768323, “Adverse Maternal, Fetal, and Postnatal Effects of Hexafluoropropylene Oxide Dimer Acid (GenX) from Oral Gestational Exposure in Sprague-Dawley Rats” (Environmental Health Perspectives, 2019).
# Test system: estrogen (ER) receptor
# Test: ER transcriptional activation, T47D-KBluc cells
# Type: cell-based
# Settings: 100 pM to 10 μM
# Description: HFPO-DA was assessed for agonism and antagonism of transcriptional activation for estrogen (ER), androgen (AR), and glucocorticoid receptors (GR). Method details for in vitro transactivation assays for ER ([Wilson et al. 2004a]), AR ([Hartig et al. 2002], [2007]), and GR ([Conley et al. 2017]; [Medlock Kakaley et al. 2018]) have been previously reported. Briefly, for ER activity we utilized the stably transfected T47D-KBluc cell line [publicly available via American Type Culture Collection (ATCC); CRL-2865] according to protocols provided by ATCC with the modification of Dulbecco’s Modified Eagle Media (DMEM) as the cell culture media instead of Roswell Park Memorial Institute (RPMI) media. […] All assays were run in 96-well plates and luminescence was detected using a BMG Fluostar Omega luminometer (BMG Labtech) following 24-h exposure. […] Cellular cytotoxicity across the dosing range was determined for CV-1 cells utilizing the 3-(4,5-dimethylthiazol-2-yl)-2,5-diphenyltetrazolium bromide (MTT) dye ([Mosmann 1983]). HFPO-DA was analyzed using n=2–3 biological replicate assay plates (i.e., unique cell passages) with four technical replicates per treatment per plate. […]
structure (smiles),measurement,value
"O=C(O)C(F)(OC(F)(F)C(F)(F)C(F)(F)F)C(F)(F)F (stereo not shown) [HFPO-DA, Hexafluoropropylene oxide dimer acid]",estrogenic activity (agonism or antagonism),did not display any estrogenic activity
